# Experimental data reported in patent US20020132853A1, “Capsaicin receptor ligands” (priority 2000, published 2002).
# Biological target: T1, human capsaicin receptor (Homo sapiens, UniProt Q8NER1)
# T1 construct: expression consrtuct encoding the full length human capsaicin receptor; expressed in transfected cells
# Assay: Antagonist assay for Capsaicin receptor mediated calcium mobilization
# Assay type: cell-based
# Conditions: Table III, read-out: EC50 (the source's name)
# Protocol: Calcium Mobilization Assay
# Cells transfected with expression plasmids (as described in Example 10) and thereby expressing the human capsaicin receptor are seeded and grown to 70-90% confluency in FALCON black-walled, clear-bottomed 96-well plates (#3904, BECTON-DICKINSON, Franklin Lakes, N.J.) . The culture media are emptied from the 96 well plates and FLUO-3 AM calcium sensitive dye (Molecular Probes, Eugene, OR) is added to each well (dye solution: 1 mg FLUO-3 AM, 440 uL DMSO and 440 ul 20% pluronic acid in DMSO, diluted 1:4, 50 ul diluted solution per well). Plates are covered with aluminum foil and incubated at 37° C for 1-2 hours in an environment containing 5% CO2. After the incubation the dye is emptied from the plates, and the cells are washed once with Krebs-Ringer HEPES (KRH) buffer (25 mM HEPES, 5 mM KCl, 0.96 mM NaH2PO4, 1 MM MgSO4, 2 mM CaCl2, 5 mM glucose, 1 mM probenecid, pH 7.4), and resuspended in KRH buffer.
# Agonist (e.g., olvanil, capsaicin, or RTX)-induced calcium mobilization is monitored using either FLUOROSKAN ASCENT (Labsystems, Franklin, Mass.) or FLIPR (fluorometric imaging plate reader system, Molecular Devices, Sunnyvale, Calif.) instruments. Similarly, varying concentrations of the antagonists ruthenium red or capsazepine are added to cells concurrently with agonist (e.g., 25-50 nM capsaicin). For agonist-induced calcium responses, data obtained between 30 and 60 seconds after agonist application are used to generate the EC50 values. […] software (Synergy Software, Reading, Pa.) was utilized to fit the data to the equation: […]
# to determine the EC50 for the response. In this equation, y is the maximum fluorescence signal, x is the concentration of the agonist or antagonist, a is the Emax, b corresponds to the EC50 or IC50 value, and finally, c is the Hill coefficient.
# Assay for Determination of Capsaicin Receptor Antagonist Effects
# In order to measure the ability of a test compound to antagonize (inhibit) the response of cells expressing capsaicin receptors to capsaicin or other vanilloid agonist, the EC50 of capsaicin is first determined.
# An additional 20 ul of KRH buffer and 1 ul DMSO is added to each well of cells, prepared as described above. 100 ul capsaicin in KRH buffer is automatically transferred by the FLIPR instrument to each well.
# Test compounds are dissolved in DMSO, diluted in 20 ul KRH buffer so that the final concentration of test compounds in the assay well is between 1 uM and 5 uM, and added to cells prepared as described above. The 96 well plates containing prepared cells and test compounds are incubated in the dark, at room temperature for 0.5-6 hours. It is important that the incubation not continue beyond 6 hours. Just prior to determining the fluorescence response, 100 ul capsaicin in KRH buffer at twice the EC50 concentration determined from the concentration response curve is automatically added by the FLIPR instrument to each well of the 96 well plate for a final sample volume of 200 ul and a final capsaicin concentration equal to the EC50. The final concentration of test compounds in the assay wells is between 1 uM and 5 uM. […] Antagonists of the capsaicin receptor decrease this response by about 20%, preferably by about 50%, and most preferably by at least 80% as compared to matched control. The concentration of antagonist required to provide a 50% decrease is the EC50 for the antagonist (also referred to as the IC50).
# T1 sequence (Q8NER1 whole entry): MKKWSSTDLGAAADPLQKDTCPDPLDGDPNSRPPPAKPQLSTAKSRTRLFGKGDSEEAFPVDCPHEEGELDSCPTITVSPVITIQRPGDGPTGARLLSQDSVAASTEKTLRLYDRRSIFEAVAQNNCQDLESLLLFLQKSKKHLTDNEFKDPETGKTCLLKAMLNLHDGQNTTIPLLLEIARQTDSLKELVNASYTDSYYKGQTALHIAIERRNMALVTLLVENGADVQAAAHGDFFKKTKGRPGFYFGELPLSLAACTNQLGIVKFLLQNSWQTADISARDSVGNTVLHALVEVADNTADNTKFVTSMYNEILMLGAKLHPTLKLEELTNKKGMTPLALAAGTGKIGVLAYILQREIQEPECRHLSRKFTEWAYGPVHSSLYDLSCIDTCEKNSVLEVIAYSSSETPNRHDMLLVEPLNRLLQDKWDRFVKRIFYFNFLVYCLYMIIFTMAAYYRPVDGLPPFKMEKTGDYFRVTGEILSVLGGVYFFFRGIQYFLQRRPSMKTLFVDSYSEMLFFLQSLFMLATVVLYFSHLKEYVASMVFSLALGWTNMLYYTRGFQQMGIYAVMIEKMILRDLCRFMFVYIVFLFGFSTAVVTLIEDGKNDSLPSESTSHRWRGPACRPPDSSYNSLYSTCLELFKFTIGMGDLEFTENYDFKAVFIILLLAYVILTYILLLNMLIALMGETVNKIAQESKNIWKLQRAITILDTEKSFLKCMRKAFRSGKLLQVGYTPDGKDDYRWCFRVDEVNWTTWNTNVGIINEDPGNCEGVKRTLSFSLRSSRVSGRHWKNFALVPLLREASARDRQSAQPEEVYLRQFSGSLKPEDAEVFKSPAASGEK
row,IC50 [nM],SMILES
1,< 1000,"CC(C)c1ccc(NC(=O)N2CCN(c3ncccc3Cl)C[C@H]2C)cc1 [Compound 22, (2R)-4-(3-chloropyridin-2-yl)-N-(4-isopropylphenyl)-2-methylpiperazine-1-carboxamide]"
2,< 1000,"C[C@@H]1CN(c2ncccc2N(C)C)CCN1C(=O)Nc1ccc(C(C)(C)C)cc1 [Compound 43, (2R)-N-(4-tert-butylphenyl)-4-[3-(dimethylamino)pyridin-2-yl]-2-methylpiperazine-1-carboxamide]"
3,< 1000,"C[C@@H]1CN(c2ncccc2Cl)CCN1C(=O)Nc1ccc(C(C)(C)C)cc1 [Compound 21, (2R)-N-(4-tert-butylphenyl)-4-(3-chlorpyridin-2-yl)-2-methylpiperazine-1-carboxamide]"
4,< 1000,"C[C@@H]1CN(c2nccc3ccccc23)CCN1C(=O)Nc1ccc(C(C)(C)C)cc1 [Compound 39, (2R)-N-(4-tert-butylphenyl)-4-isoquinolin-1-yl-2-methylpiperazine-1-carboxamide]"
5,< 1000,"C[C@@H]1CN(c2ncccc2C(F)(F)F)CCN1C(=O)Nc1ccc(C(C)(C)C#N)cc1 [Compound 57, (2R)-N-[4-(1-cyano-1-methylethyl)phenyl]-2-methyl-4-[3-(trifluoromethyl)pyridin-2-yl]piperazine-1-carboxamide]"
6,< 1000,"C[C@@H]1CN(c2ncccc2C#N)CCN1C(=O)Nc1ccc(C(C)(C)C)cc1 [Compound 82, (2R)-N-(4-tert-butylphenyl)-4-(3-cyanopyridin-2-yl)-2-methylpiperazine-1-carboxamide]"
7,< 1000,"CC(C)c1ccc(NC(=O)N2CCN(c3ncccc3C(F)(F)F)CC2C(C)C)cc1 (centres unmarked) [Compound 74, 2-isopropyl-N-(4-isopropylphenyl)-4-[3-(trifluoromethyl)pyridin-2-yl]piperazine-1-carboxamide]"
8,< 1000,"COCC(C)(C)c1ccc(NC(=O)N2CCN(c3ncccc3Cl)C[C@H]2C)cc1 [Compound 54, (2R)-4-(3-chloropyridin-2-yl)-N-[4-(2-methoxy-1,1-dimethylethyl)phenyl]-2-methylpiperazine-1-carboxamide]"
9,< 1000,"C[C@@H]1CN(c2ncccc2C(F)(F)F)CCN1C(=O)Nc1ccc(C2(O)CCOCC2)cc1 [Compound 51, (2R)-N-[4-(4-hydroxytetrahydro-2H-pyran-4-yl)phenyl]-2-methyl-4-[3-(trifluoromethyl)pyridin-2-yl]piperazine-1-carboxamide]"
10,< 1000,"C[C@@H]1CN(c2ncccc2F)CCN1C(=O)Nc1ccc(C(F)(F)F)cc1 [Compound 75, (2R)-4-(3-fluoropyridin-2-yl)-2-methyl-N-[4-(trifluoromethyl)phenyl]piperazine-1-carboxamide]"
11,< 1000,"C[C@@H]1CN(c2ncccc2C(F)(F)F)CCN1C(=O)Nc1ccc(C(F)(F)F)cc1 [Compound 28, (2R)-2-methyl-N-[4-(trifluoromethyl)phenyl]-4-[3-(trifluoromethyl)pyridin-2-yl]piperazine-1-carboxamide]"
12,< 1000,"C[C@H]1CN(c2ncccc2Cl)CCN1C(=O)Nc1ccc(C(F)(F)F)cc1 [Compound 23, (2S)-4-(3-chloropyridin-2-yl)-N-(4-trifluoromethylphenyl)-2-methylpiperazine-1-carboxamide]"

# Same assay, conditions: Table IV, read-out: EC50 (the source's name)
row,IC50 [nM],SMILES
1,< 1000,"O=C(Nc1ccc(C(F)(F)F)cn1)N1CCN(c2ncccc2Cl)CC1 [Compound 93, 4-(3-chloropyridin-2-yl)-N[5-(trifluoromethyl)pyridin-2-yl]piperazine-1-carboxamide]"
2,< 1000,"C[C@@H]1CN(c2nccnc2Cl)CCN1C(=O)Nc1ccc(C(C)(C)C)cc1 [Compound 95, (2R)-N-(4-tert-butylpghenyl)-4-(3-chloropyrazin-2-yl)-2-methylpiperazine-1-carboxamide]"
3,< 1000,"CC(C)C1CCC(NC(=O)N2CCN(c3ncccc3C(F)(F)F)C[C@H]2C)CC1 (stereo partly drawn) [Compound 101, (2R)-N-(4-isopropylcyclohexyl)-2-methyl-4-[3-(trifluoromethyl)pyridin-2-yl]piperazine-1-carboxamide]"
4,< 1000,"C[C@@H]1CN(c2ncccc2Cl)CCN1C(=O)NC1CCC(C(C)(C)C)CC1 (stereo partly drawn) [Compound 99, (2R)-N-(4-tert-butylcyclohexyl)-4-(3-chloropyridin-2-yl)-2-methylpiperazine-1-carboxamide]"
5,< 1000,"CC(C)C1CCC(NC(=O)N2CCN(c3ncccc3Cl)C[C@H]2C)CC1 (stereo partly drawn) [Compound 100, (2R)-4-(3-chloropyridin-2-yl)-N-(4-isopropylcyclohexyl)-2-methylpiperazine-1-carboxamide]"

# Same assay, conditions: Table V, read-out: EC50 (the source's name)
row,IC50 [nM],SMILES
1,< 1000,"C[C@@H]1CN(c2ncccc2C(F)(F)F)CCN1C(=O)Nc1ccc(Br)c(C(F)(F)F)c1 [Compound 157, (2R)-N-[4-bromo-3-(trifluoromethyl)phenyl]-2-methyl-4-[3-(trifluoromethyl)pyridin-2-yl]piperazine-1-carboxamide]"
2,< 1000,"Cc1cc(NC(=O)N2CCN(c3ncccc3C(F)(F)F)C[C@H]2C)ccc1C(F)(F)F [Compound 124, (2R)-2-methyl-N-[3-methyl-4-(trifluoromethyl)phenyl]-4-[3-(trifluoromethyl)pyridin-2-yl]piperazine-1-carboxamide]"
3,< 1000,"C=C(c1ccc(NC(=O)N2CCN(c3ncccc3Cl)C[C@H]2C)cc1)C(F)(F)F [Compound 125, (2R)-4-(3-chloropyridin-2-yl)-2-methyl-N-{4-[1-(trifluoromethyl)vinyl]phenyl]piperazine-1-carboxamide]"
4,< 1000,"O=C(Nc1ccc(C(F)(F)F)cc1)N1CCN(c2ncccc2C(F)(F)F)CC1CF (centres unmarked) [Compound 153, 2-(fluoromethyl)-N-[4-(trifluoromethyl)phenyl]-4-[3-(trifluoromethyl)pyridin-2-yl]piperazine-1-carboxamide]"
5,< 1000,"C[C@@H]1CN(c2ncc([N+](=O)[O-])cc2Cl)CCN1C(=O)Nc1ccc(C(F)(F)F)cc1 [Compound 131, (2R)-4-(3-chloro-5-nitrpyridin-2-yl)-2-methyl-N-[4-(trifluoromethyl)phenyl]piperazine-1-carboxamide]"
6,< 1000,"C[C@@H]1CN(c2ncccc2Cl)CCN1C(=O)Nc1ccc(C(=O)c2ccccc2)cc1 [Compound 140, (2R)-N-(4-benzoylphenyl)-4-(3-chloropyridin-2-yl)-2-methylpiperazine-1-carboxamide]"
7,< 1000,"COc1cccc(NC(=O)N2CCN(c3ncccc3C(F)(F)F)CC2)c1 [Compound 113, N-(3-methoxyphenyl)-4-[3-(trifluoromethyl)pyridin-2-yl]piperazine-1-carboxamide]"
8,< 1000,"CCCCc1ccc(NC(=O)N2CCN(c3ncccc3Cl)C[C@H]2C)cc1 [Compound 152, (2R)-N-(4-butylphenyl)-4-(3-chloropyridin-2-yl)-2-methylpiperazine-1-carboxamide]"
9,< 1000,"O=C(Nc1ccc(OC(F)(F)F)cc1)N1CCN(c2ncccc2C(F)(F)F)CC1 [Compound 117, N-[4-(trifluoromethoxy)phenyl]-4-[3-(trifluoromethyl)pyridin-2-yl]piperazine-1-carboxamide]"
10,< 1000,"C[C@@H]1CN(c2ncccc2N(S(C)(=O)=O)S(C)(=O)=O)CCN1C(=O)Nc1ccc(C(C)(C)C)cc1 [Compound 123, (2R)-4-{3-[bis(methylsulfonyl)amino]pyridin-2-yl}-N-(4-tert-butylphenyl)-2-methylpiperazine-1-carboxamide]"
11,< 1000,"C[C@@H]1CN(c2ncccc2Cl)CCN1C(=O)Nc1ccc(F)c(C(F)(F)F)c1 [Compound 159, (2R)-4-(3-chlorpyridin-2-yl)-N-[4-fluoro-3-(trifluoromethyl)phenyl]-2-methylpiperazine-1-carboxamide]"

# Same assay, conditions: Table VI, read-out: EC50 (the source's name)
row,IC50 [nM],SMILES
1,< 1000,CC(C)c1ccc(NC(=S)N2CCN(c3ncccc3Cl)C[C@@H]2C)cc1 [Compound 170]
